# Measured values as given in patent publication US4879390A, “Delta-butyrolactams, thereof, processes for the preparation thereof and their medical use” (priority 1984, dated 1989).
# Key:
# [1] = test system: retrograde amnesia (rat); experiment: Retrograde amnesia (rat) under hypoxic conditions; format: in vivo, male rats; conditions: time to enter dark compartment 24 h after hypoxia
# Experimental: The apparatus (39 cm long, 21 cm high, and 21 cm wide) consists of two compartments, one made of translucent plastic (29 cm long) and the other one painted black (10 cm long). It has a bottom of spaced metal grids which are connected to a stimulating device delivering 1.6 mA for 20 s.
# Both compartments are connected via a door which can be closed.
# Male rats (100-120 g body weight) will be placed individually in the large compartment and allowed to explore both compartments for 3 min.
# Thereafter the animals are placed in the small (dark) compartment, the connecting door is closed and the foot shock is delivered. After that the animals are put in an air-tight cage which is perfused by a gas mixture containing 3.8% oxygen and 96.2 % nitrogen.
# 24 hours later the rats are placed again in the bright compartment. The observation time is 3 min.
# One experiment is performed in three groups of 15 animals each:
# Group A: control group, not exposed to hypoxia
# Group B: control group, receiving hypoxia after first training
# Group C: treated animals, receiving hypoxia after first training.
# Evaluation: the times the animals need to enter the dark compartment are measured in seconds.
# The time difference between the two control groups is considered to be 100% (A-B=100%).
# The time difference between the control group B and the treated group C is calculated in percent (C-B=X%). X is considered to be a measure for the potency of the antiamnestic effect of the substance tested.
# [2] = test system: pentobarbital sleeping time; experiment: Effect on barbiturates sleeping time in mice (pentobarbital); format: in vivo, male Kunming strain mice; conditions: 250 mg/kg; for Sleeping time (X ± SE): 10 per group, control 71 ± 7, P <0.01
# Experimental: (§1) Male Kunming strain mice weighing 18-22 grams were used throughout the experiments. The compounds to be tested were suspended in 5% Tween 80 and given orally by gavage. The vehicle of 5% Tween 80 solution was administered to control mice via the same route. In in vitro experiments, the compounds were dissolved in dimethylformamide and added directly into the incubation mixture.
# (§2) In another experiment, mice were given a dose of 250 mg/kg of Clausenamide. Sodium pentobarbital (50 mg/kg) was injected ip 1 and 24 h after administration of the compounds. The sleeping time was estimated by recording the interval of disappearance and recovery of righting reflex. […] This means that the prolongation of pentobarbital sleeping time by Clausenamide was due to the inhibition of liver drug metabolism enzyme.
# [3] = test system: barbital sleeping time; experiment: Effect on barbiturates sleeping time in mice (barbital); format: in vivo, male Kunming strain mice
# Experimental: as §1
# as §2, with “Sodium pentobarbital (50 mg/kg) was injected ip 1 and 24 h after administration of the compounds.” left out
# [4] = test system: CCl4 hepatotoxicity in mice; experiment: Protective action of Clausenamide against CCl4 hepatotoxicity in mice; format: in vivo, male Kunming strain mice; conditions: for Liver lipids (X ± SE): control 21.0 ± 4.2; for SGPT (X ± SE): nine mice per group, control 3016 ± 23
# Experimental: as §1
# (§3) The parameters adopted for hepatotoxicity included serum transaminase (SGPT), liver triglycerides, and pathological examination of liver tissues. The liver lesions were scored mainly by the extent of inflammation and necrosis and graded from 0 to 4.
# (§4) (a) Hepato-protective action
# The procedure of experiment of anti-CCl4 hepatotoxicity was the same as described above. The dosages of the active compound used were 125 and 250 mg/kg. […] Liver lipids were not decreased.
# [5] = test system: CCl4 hepatotoxicity in mice; experiment: Therapeutic effect on CCl4 hepatotoxicity in mice; format: in vivo, male Kunming strain mice
# Experimental: as §1, §3
# In another experiment, mice were first injected […] of 0.15% CCl4 in vegetable oil every other day for 3 doses. Treatment of the mice with Clausenamide (250 mg/kg daily) started from the second to fifth day after the first injection of CCl4. The determination of SGPT and pathological examination of liver tissues were performed on day 7 of the experiment.
# [6] = test system: CCl4 intoxicated mice; experiment: Hepato-protective action: SGPT of CCl4 intoxicated mice; format: in vivo, male Kunming strain mice; conditions: two oral doses of 250 mg/kg
# Experimental: as §1, §3, §4
# [7] = test system: Cytochrome b5; experiment: Induction of hepatic microsomal enzymes: cytochrome b5; format: in vivo, male Kunming strain mice
# Experimental: as §1
# (§5) The liver microsomal cytochrome P-450 plays a key role in the detoxification of xenobiotics. Mice were administered 250 mg/kg of Clausenamide once daily for 3 days. The control mice received the vehicle. The mice were killed after fasting overnight. Liver microsomes were prepared and microsomal monooxygenases were determined.
# [8] = test system: benzo(a)pyrene hydroxylase (AHH); experiment: Induction of hepatic microsomal enzymes: benzo(a)pyrene hydroxylase (AHH); format: in vivo, male Kunming strain mice
# Experimental: as §1, §5
# [9] = test system: acetaminophen hepatotoxicity in mice; experiment: Protective action against acetaminophen hepatotoxicity in mice; format: in vivo, male Kunming strain mice; conditions: 250 mg/kg × 3
# Experimental: as §1, §3
# The experiment of anti-acetaminophen hepatotoxicity was performed in the following way. Mice were administered two doses (250 mg/kg) of Clausenamide on the first day followed by the same dose on the second day. A dose of 150 mg/kg of acetaminophen was injected ip 6 h after the last dose of the compound. SGPT was determined and liver tissues were examined 20 h after acetaminophen injection.
# [10] = test system: NADPH-cytochrome c reductase; experiment: Induction of hepatic microsomal enzymes: NADPH-cytochrome c reductase; format: in vivo, male Kunming strain mice
# Experimental: as §1, §5
# [11] = test system: serum and liver transaminase (GPT); experiment: Effect on serum and liver transaminase (GPT) levels of normal mice; format: in vivo, male Kunming strain mice
# Experimental: as §1
# Two groups of mice were administered the vehicle or 250 mg/kg of Clausenamide once daily for 7 consecutive days, respectively. The serum and liver GPT were determined 24 h after the last dose administration.
# [12] = Induction of hepatic microsomal cytochrome P-450: liver weight and microsomal protein; format: in vivo, male Kunming strain mice; conditions: 250 mg/kg/day × 3; 6 per group; control 4.0 ± 0.2
# Experimental: as §1, §5
# [13] = test system: hepatic microsomal cytochrome P-450; experiment: Induction of hepatic microsomal cytochrome P-450; format: in vivo, male Kunming strain mice
# Experimental: as §1, §5
# [14] = Solubility; format: physicochemical
# [15] = test system: hypoxia tolerance (mouse); experiment: Increase of hypoxia tolerance (mouse); format: in vivo, male mice; conditions: for surviving/total animals: 30 min before test, 3.5% oxygen, control 9/60
# Experimental: Collectives of male mice (20 g body weight) are placed in a plastic box divided into two chambers (size of the box: 15×28×40 cm corresponding to a volume of 16.8 l per bos). 20 mice are placed in each chamber. The box is perfused with a gas mixture containing 3.5% oxygen and 96.5% nitrogen. The perfusion volume is 4 l/min. The test substance and vehicle are administered orally 30 min before the test.
# About 7 min after onset of perfusion with the hypoxic mixture animals die. The experiment is stopped when in the left hand chamber (control collective) three animals only show signs of respiration. The box is opened and the number of animals of the treated group still alive is counted.
# The difference between the survived animals in both groups is evaluated using the X^2 test according to Fisher and Yates (1963) (Thomann et al. 1975).
# [16] = test system: mice; experiment: Acute toxicity test; format: in vivo; conditions: single oral dose of 3 grams/kg, 10 mice
# Experimental: as §1
# [17] = test system: thioacetamide hepatotoxicity in mice; experiment: Protective action against thioacetamide hepatotoxicity in mice; format: in vivo, male Kunming strain mice; conditions: thioacetamide 50 mg/kg
# Experimental: as §1, §3, §4
# In the experiment of thioacetamide hepatotoxicity, mice were treated according to the procedure of the first experiment except that thioacetamide (50 mg/kg) was used instead of CCl4.
# [18] = test system: Aminopyrine demethylase; experiment: Induction of hepatic microsomal enzymes: aminopyrine demethylase; format: in vivo, male Kunming strain mice
# Experimental: as §1, §5
# [19] = 250 mg/kg once daily for 3 days
compound,measurement,setting,value
CN1C(=O)[C@@H](O)[C@H](c2ccccc2)[C@@H]1[C@@H](O)c1ccccc1 (relative stereo) [Clausenamide],"X (antiamnestic effect, C-B as percent of A-B)",[1]; 3 mg/kg p.o.,47%
same,"X (antiamnestic effect, C-B as percent of A-B)",[1]; 10 mg/kg p.o.,65%
same,"X (antiamnestic effect, C-B as percent of A-B)",[1]; 30 mg/kg p.o.,100%
same,Sleeping time (X ± SE),[2]; 1 h before pentobarbital 50 mg/kg,152 ± 17 min
same,"Pentobarbital sleeping time, in words",[2]; 1 h prior to pentobarbital,prolonged markedly
same,"Pentobarbital sleeping time, in words",[2]; 24 h before pentobarbital,shortened significantly
same,Sleeping time (X ± SE),[2]; 24 h before pentobarbital 50 mg/kg,46 ± 6 min
same,Sleeping time (X ± SE),"[3]; 250 mg/kg, 1 h before barbital 200 mg/kg, 10 per group, control 197 ± 27, P >0.05",172 ± 13 min
same,"Barbital sleeping time, in words",[3]; prior administration of the compound,did not affect sleeping time
same,Liver lipids (X ± SE),"[4]; 125 mg/kg × 2, CCl4",21.6 ± 4.4 mg/g liver
same,SGPT (X ± SE),"[4]; 125 mg/kg × 2, CCl4, P < 0.05",2365 ± 245 unit %
same,Liver lipids (X ± SE),"[4]; 250 mg/kg × 2, CCl4",13.4 ± 3.0 mg/g liver
same,Liver lesions: Inflammation grade,"[4]; 250 mg/kg × 2, CCl4, graded from 0 to 4, control 1.70",0.38 grade
same,Liver lesions: Necrosis grade,"[4]; 250 mg/kg × 2, CCl4, graded from 0 to 4, control 2.33",1.33 grade
same,SGPT (X ± SE),"[4]; 250 mg/kg × 2, CCl4, p < 0.01",1900 ± 257 unit %
same,"Liver injuries such as inflammation and necrosis, in words","[4]; 250 mg/kg, CCl4",less severe than those of the control
same,"Elevation of SGPT induced by CCl4, in words",[4]; 125 and 250 mg/kg,significantly depressed the elevation of SGPT
same,"Liver lipids, in words",[4]; CCl4,not decreased
same,"SGPT lowering, in words","[5]; 250 mg/kg daily, second to fifth day after first CCl4 injection",significant SGPT lowering action
same,"Liver lesions, in words","[5]; 250 mg/kg daily, second to fifth day after first CCl4 injection, day 7",no effect on liver lesions
same,SGPT (X ± SE),"[5]; 250 mg/kg/day × 4, started after first CCl4 injection, 8 mice, control 2695 ± 110, P <0.01",1718 ± 224 unit %
same,SGPT (X ± SE),"[6]; CCl4 intoxicated mice, 8 h apart, 9 per group, control 1678 ± 261",617 ± 323 unit %
same,"SGPT levels of CCl4-intoxicated mice, in words",[6],significantly decreased SGPT levels
same,"Cytochrome b5, in words",[7]; [19],increased significantly
same,Cytochrome b5,"[7]; 250 mg/kg/day × 3, 6 per group, control 0.15 ± 0.01",0.19 ± 0.01 nmol/mg protein
same,"Benzo(a)pyrene hydroxylase activity, in words",[8]; [19],increased significantly
same,AHH,"[8]; 250 mg/kg/day × 3, 6 per group, control 2.6 ± 0.4",5.7 ± 0.76 nmol/min/mg protein
same,"Hepatic injuries, in words",[9]; acetaminophen 150 mg/kg ip,markedly decreased SGPT levels and hepatic injuries
same,"SGPT levels, in words",[9]; acetaminophen 150 mg/kg ip,markedly decreased SGPT levels
same,Liver lipids,"[9]; acetaminophen 150 mg/kg ip, control 79 ± 13",82 ± 17 mg/g
same,SGPT,"[9]; acetaminophen 150 mg/kg ip, nine mice per group, control 2778 ± 270, P < 0.01",697 ± 163 unit %
same,Liver inflammation (grade),"[9]; acetaminophen, graded from 0 to 4, control 0.5",0.1 grade
same,Liver necrosis (grade),"[9]; acetaminophen, graded from 0 to 4, control 1.4",0 grade
same,"NADPH-cytochrome c reductase, in words",[10]; [19],increased significantly
same,NADPH-cytochrome c reductase,"[10]; 250 mg/kg/day × 3, 6 per group, control 103 ± 2.5",117 ± 2.5 nmol cytochrome c reduced/min/
same,"SGPT level of normal mice, in words",[11]; 250 mg/kg once daily for 7 days,"slightly higher than that of the control, but the difference was not significant"
same,SGPT (X ± SE),"[11]; normal mice, 250 mg/kg/day × 7, eight mice per group, control 217 ± 7.5, P > 0.05",252 ± 22.1 unit %
same,LGPT (X ± SE),"[11]; normal mice, 250 mg/kg/day × 7, eight mice per group, control 260 ± 11.6, P > 0.05",292 ± 8.0 unit/100 mg
same,Liver weight,[12],5.4 ± 0.2 g %
same,"Hepatic cytochrome P-450, in words",[13]; [19],increased significantly
same,Cytochrome P-450,"[13]; 250 mg/kg/day × 3, 6 per group, control 0.87 ± 0.07",1.14 ± 0.07 nmol/mg protein
same,Action on hepatic microsomal cytochrome P-450 (concluded from sleeping time and enzyme data),"[13]; 250 mg/kg, biphasic",inhibition and followed by induction
same,solubility in common organic solvents,"[14]; CHCl3, CH2Cl2, ether, ethyl acetate, etc.",only slightly soluble
same,"solubility in hot methanol, DMSO and DMF","[14]; hot methanol, DMSO and DMF",soluble
same,effect,[15]; 10 mg/kg p.o.,19.6%
same,surviving/total animals,[15]; 10 mg/kg p.o.,19/60
same,effect,[15]; 30 mg/kg p.o.,41.1%
same,surviving/total animals,[15]; 30 mg/kg p.o.,31/60
same,effect,[15]; 100 mg/kg p.o.,58.8%
same,increase in the survival rate,[15]; 100 mg/kg p.o.,59%
same,surviving/total animals,[15]; 100 mg/kg p.o.,40/60
same,"hypoxia tolerance, in words",[15]; 10 to 100 mg/kg p.o.,significantly increased
same,Death in 7 days,[16],did not cause death
same,Liver lipids (X ± SE),"[17]; 250 mg/kg × 2, control 61 ± 11.7",39 ± 3.9 mg/g
same,SGPT (X ± SE),"[17]; 250 mg/kg × 2, nine mice per group, control 1696 ± 231, P < 0.01",718 ± 229 unit %
same,"SGPT levels, in words",[17],markedly lowered the SGPT levels
same,"Aminopyrine demethylase, in words",[18]; [19],increased significantly
same,Aminopyrine demethylase,"[18]; 250 mg/kg/day × 3, 6 per group, control 81 ± 6.3",126 ± 5.2 nmol HCHO/min protein
